Test results as given in US20130137739A1, “SOLID DISPERSION COMPRISING TRIAZOLE COMPOUND” (Astellas Pharma, Inc., priority 2010, published 2013).
In brackets after ≈: the same amount, converted by molar mass. Where two headings read alike, the source gives them in different places.

Tests used:
[1] = Glass transition point (Tg) by DSC; format: physicochemical; details: Compound A itself
Protocol: The glass transition point of a solid dispersion can be obtained by subjecting the solid dispersion to calorimetric measurements using DSC and plotting a curve of changes in the amount of heat. In more practical terms a sample of about 10 mg is weighed out onto an aluminum pan and calorimetry is carried out for temperatures from 0° C. and 150° C. with a rate of temperature increase of 5° C. per minute. In the process of heating the sample heat is absorbed or generated at the glass transition point and, as a result, the baseline of the calorimetric curve will shift downward. Extended lines are drawn for the two baselines, namely the original baseline and the shifted baseline, and the glass transition temperature is obtained from the intersection point of the ½ line between the two baselines and the calorimetric curve.
Particles of the solid dispersion (about 10 mg) of each example and comparative example were weighed out on an aluminum pan and calorimetric measurements were made at temperatures between 0° C. to 150° C. with a rate of temperature increase of 5° C. per minute. Heat was absorbed or generated at the glass transition point in the course of heating the sample and, as a result, the baseline of the calorimetric curve shifted downward. […]

[2] = Solubility of Compound A in water and organic solvents; format: physicochemical

COc1ccc(-c2nc(OC)nn2-c2ccc(OC)cc2)cc1 [Compound A, 3-methoxy-1,5-bis(4-methoxyphenyl)-1H-1,2,4-triazole]
glass transition point of Compound A [1]: 4 °C | solubility ([2]; acetone, organic solvent or mixture, room temperature, read-out: solubility in organic solvent: acetone): 82.2 mg/mL (≈ 264 mM) | solubility ([2]; ethanol, organic solvent or mixture, room temperature, read-out: solubility in organic solvent: ethanol): 15.9 mg/mL (≈ 51.1 mM) | solubility ([2]; polyethylene glycol, organic solvent or mixture, room temperature, read-out: solubility in organic solvent: polyethylene glycol): 6.3 mg/mL (≈ 20.2 mM) | solubility ([2]; water, 37° C., read-out: solubility in water): 0.0107 mg/mL (≈ 0.0344 mM)
